Results taken from patent US4304861A, “Process of producing antibiotic SM-173B with Streptomyces chromofuscus” (Hoffmann-La Roche Inc., priority 1977, dated 1981).
In brackets after ≈: the same amount, converted by molar mass.

Tests used:
[1] = Toxicity, intraperitoneal administration to mice; details: mouse, in vivo, ip
Procedure: The LD50 is greater than 200 mg/kg in the case of intraperitoneal administration to mice.

[2] = test system: Mycobacterium rhodochrous; assay: Minimum Inhibitory Concentration (MIC), antibacterial spectrum; assay type: cell-based
Text: (§1) The antibacterial spectrum is evident from the following Table:
(§2) Minimum Inhibitory Concentration (MIC)
(§3) Test organism MIC (μg/ml)

Mycobacterium smegmatis = assay: as above; assay type: cell-based; details: Mycolicibacterium smegmatis
Text: as §1, §2, §3

[3] = test system: Staphylococcus aureus 209P; assay: as above; assay type: cell-based
Text: as §1, §2, §3

Penicillium citrinum = assay: as above; assay type: cell-based
Text: as §1, §2, §3

Sarcina lutea = assay: as above; assay type: cell-based; details: Micrococcus luteus
Text: as §1, §2, §3

Micrococcus flavus = assay: as above; assay type: cell-based
Text: as §1, §2, §3

[4] = test system: Staphylococcus epidermidis; assay: as above; assay type: cell-based
Text: as §1, §2, §3

Bacillus cereus = assay: as above; assay type: cell-based
Text: as §1, §2, §3

Aspergillus niger = assay: as above; assay type: cell-based
Text: as §1, §2, §3

Bacillus subtilis = assay: as above; assay type: cell-based
Text: as §1, §2, §3

Mycobacterium avium = assay: as above; assay type: cell-based
Text: as §1, §2, §3

Echerichia coli = assay: as above; assay type: cell-based
Text: as §1, §2, §3

[5] = Acidity (physico-chemical properties); assay type: physicochemical
mycobacteria = assay: Antibiotic activity (summary of MIC table); assay type: cell-based
Text: as §1, §2, §3

gram-positive bacteria = assay: Antibiotic activity (summary of MIC table); assay type: cell-based; details: a large number of gram-positive bacteria
Text: as §1, §2, §3

Solubility = assay type: physicochemical

COC1Cc2c(cc3c(c2O)C(=O)c2c(O)cccc2C3=O)C(=O)C1(C)O (stereo not drawn) [Antibiotic SM-173B]
LD50 [1]: > 200 mg/kg
MIC [2]: 3.13 µg/mL (≈ 8.5 µM)
MIC (Mycobacterium smegmatis): 3.13 µg/mL (≈ 8.5 µM)
MIC [3]: 6.25 µg/mL (≈ 17 µM)
MIC (Penicillium citrinum): 100 µg/mL (≈ 271 µM)
MIC (Sarcina lutea): 12.5 µg/mL (≈ 33.9 µM)
MIC (Micrococcus flavus): 6.25 µg/mL (≈ 17 µM)
MIC [4]: 3.13 µg/mL (≈ 8.5 µM)
MIC (Bacillus cereus): 6.26 µg/mL (≈ 17 µM)
MIC (Aspergillus niger): 100 µg/mL (≈ 271 µM)
MIC (Bacillus subtilis): 6.25 µg/mL (≈ 17 µM)
MIC (Mycobacterium avium): 6.25 µg/mL (≈ 17 µM)
MIC (Echerichia coli): 100 µg/mL (≈ 271 µM)
acidity [5]: weakly acid
antibiotic activity (mycobacteria): antibiotically active
antibiotic activity (gram-positive bacteria): antibiotically active
Solubility (Solubility; in methanol, ethanol, butanol, acetone, chloroform, ethyl acetate): Soluble
Solubility (Solubility; in n-hexane): poorly soluble
Solubility (Solubility; in petroleum ether): insoluble
Solubility (Solubility; in water): insoluble
Solubility (Solubility; in water under alkaline conditions): Soluble
